Results as given in patent publication US12599672B2, “KRAS proteolysis targeting chimeras” (PAQ Therapeutics Inc., priority 2023, dated 2026).

How the values were obtained:
KRAS G12D = target: T1, KRAS G12D (Homo sapiens, UniProt P01116, G12D); assay: KRAS G12D HiBit assay; assay type: cell-based; conditions: AsPc-1-KRAS (G12D)-HiBit-KI cell, compound treatment for 24 hours, absolute DC50
T1 construct: AsPc-1-KRAS (G12D)-HiBit-KI cell (Pharmaron); host or cells: AsPc-1-KRAS (G12D)-HiBit-KI cells (HiBiT knock-in at the endogenous KRAS locus)
Summary of the method: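 Cells were treated for 24 h with compounds in a 3-fold, 10-point dilution series from a 0.3 mM DMSO stock, then equilibrated 15 min at room temperature. KRAS G12D HiBiT levels were read by luminescence after lytic Nano-Glo HiBiT reagent with LgBiT; inhibition calculated relative to 0.1% DMSO high control.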

KRAS G12V = target: T2, KRAS G12V (Homo sapiens, UniProt P01116, G12V); assay: KRAS G12V HiBit assay; assay type: cell-based; conditions: SW620-KRAS (G12V)-HiBit-KI cells, compound treatment for 24 hours, class symbols
T2 construct: SW620-KRAS (G12V)-HiBit-KI cell (Pharmaron); host or cells: SW620-KRAS (G12V)-HiBit-KI cells (HiBiT knock-in at the endogenous KRAS locus)
Summary of the method: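 HiBiT-tagged KRAS G12V cells treated 24 h with compound in a 3-fold, 10-point series (0.3 mM DMSO stock); lytic HiBiT reagent with LgBiT added after 15 min room-temperature equilibration. Degradation calculated against 0.1% DMSO high control.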

[1] = numeric bounds given in place of class symbols

T2 sequence (P01116 1-188 isoform P01116-2 G12V): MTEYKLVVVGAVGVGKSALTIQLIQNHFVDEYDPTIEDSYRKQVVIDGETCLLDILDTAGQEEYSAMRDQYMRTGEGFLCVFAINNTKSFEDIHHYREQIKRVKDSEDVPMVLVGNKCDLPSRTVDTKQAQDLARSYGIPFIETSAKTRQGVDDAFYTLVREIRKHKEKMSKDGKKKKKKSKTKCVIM
T1 sequence (P01116 1-188 isoform P01116-2 G12D): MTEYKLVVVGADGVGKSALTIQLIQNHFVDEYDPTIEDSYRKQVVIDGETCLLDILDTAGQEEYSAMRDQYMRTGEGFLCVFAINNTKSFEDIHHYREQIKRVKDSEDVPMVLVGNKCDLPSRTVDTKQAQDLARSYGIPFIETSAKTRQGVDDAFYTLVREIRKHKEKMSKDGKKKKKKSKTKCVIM

DC50 (KRAS G12D; class symbols)	DC50 (KRAS G12V)	DC50 (KRAS G12D; [1])	Structure (SMILES)
< 100 nM	10 to 100 nM	–	CCc1c(F)ccc2cc(O)cc(-c3ncc4c(N5CCC[C@@](C)(O)C5)nc(OC[C@@]56CCCN5[C@H](COC(=O)N5CCC(CN7C8CCC7CC(c7ccc9c(c7)n(C)c(=O)n9C7CCC(=O)NC7=O)C8)CC5)CC6)nc4c3F)c12 (stereo partly drawn) [Compound 393, ((3S,7aS)-7a-(((7-(8-ethyl-7-fluoro-3-hydroxynaphthalen-1-yl)-8-fluoro-4-((R)-3-hydroxy-3-methylpiperidin-1-yl)pyrido[4,3-d]pyrimidin-2-yl)oxy)methyl)hexahydro-1H-pyrrolizin-3-yl)methyl 4-((3-(1-(2,6-dioxopiperidin-3-yl)-3-methyl-2-oxo-2,3-dihydro-1H-benzo[d]imidazol-5-yl)-8-azabicyclo[3.2.1]octan-8-yl)methyl)piperidine-1-carboxylate]
< 100 nM	10 to 100 nM	–	CCc1c(F)ccc2cc(O)cc(-c3ncc4c(N5CCC[C@@](C)(O)C5)nc(OC[C@@]56CCCN5[C@H](COC(=O)N5CCC(CN7CC(c8ccc9c(c8)n(C)c(=O)n9C8CCC(=O)NC8=O)C7)CC5)CC6)nc4c3F)c12 (stereo partly drawn) [Compound 395, ((3S,7aS)-7a-(((7-(8-ethyl-7-fluoro-3-hydroxynaphthalen-1-yl)-8-fluoro-4-((R)-3-hydroxy-3-methylpiperidin-1-yl)pyrido[4,3-d]pyrimidin-2-yl)oxy)methyl)hexahydro-1H-pyrrolizin-3-yl)methyl 4-((3-(1-(2,6-dioxopiperidin-3-yl)-3-methyl-2-oxo-2,3-dihydro-1H-benzo[d]imidazol-5-yl)azetidin-1-yl)methyl)piperidine-1-carboxylate]
< 100 nM	< 10 nM	–	CCc1c(F)ccc2cc(O)cc(-c3ncc4c(N5CCC[C@@](C)(O)C5)nc(OC[C@@]56CCCN5[C@H](COC(=O)N5CC7CC(C5)C7CN5CCC(c7ccc8c(c7)n(C)c(=O)n8C7CCC(=O)NC7=O)CC5)CC6)nc4c3F)c12 (stereo partly drawn) [Compound 400, ((3S,7aS)-7a-(((7-(8-ethyl-7-fluoro-3-hydroxynaphthalen-1-yl)-8-fluoro-4-((R)-3-hydroxy-3-methylpiperidin-1-yl)pyrido[4,3-d]pyrimidin-2-yl)oxy)methyl)hexahydro-1H-pyrrolizin-3-yl)methyl 6-((4-(1-(2,6-dioxopiperidin-3-yl)-3-methyl-2-oxo-2,3-dihydro-1H-benzo[d]imidazol-5-yl)piperidin-1-yl)methyl)-3-azabicyclo[3.1.1]heptane-3-carboxylate]
< 100 nM	10 to 100 nM	–	CCc1c(F)ccc2cc(O)cc(-c3ncc4c(N5CCC[C@@](C)(O)C5)nc(OC[C@@]56CCCN5[C@H](COC(=O)N5CC7C(CN8CCC(c9ccc%10c(c9)n(C)c(=O)n%10C9CCC(=O)NC9=O)CC8)C7C5)CC6)nc4c3F)c12 (stereo partly drawn) [Compound 401, ((3S,7aS)-7a-(((7-(8-ethyl-7-fluoro-3-hydroxynaphthalen-1-yl)-8-fluoro-4-((R)-3-hydroxy-3-methylpiperidin-1-yl)pyrido[4,3-d]pyrimidin-2-yl)oxy)methyl)hexahydro-1H-pyrrolizin-3-yl)methyl 6-((4-(1-(2,6-dioxopiperidin-3-yl)-3-methyl-2-oxo-2,3-dihydro-1H-benzo[d]imidazol-5-yl)piperidin-1-yl)methyl)-3-azabicyclo[3.1.0]hexane-3-carboxylate]
–	> 100 nM	> 100 nM	CCc1c(F)ccc2cc(O)cc(-c3ncc4c(N5CCC[C@@](C)(O)C5)nc(OC[C@@]56CCCN5[C@H](COC(=O)N5CCC(C#Cc7cccc8c7n(C)c(=O)n8C7CCC(=O)NC7=O)CC5)CC6)nc4c3F)c12 (stereo partly drawn) [Compound 403, ((3S,7aS)-7a-(((7-(8-ethyl-7-fluoro-3-hydroxynaphthalen-1-yl)-8-fluoro-4-((R)-3-hydroxy-3-methylpiperidin-1-yl)pyrido[4,3-d]pyrimidin-2-yl)oxy)methyl)hexahydro-1H-pyrrolizin-3-yl)methyl 4-((1-(2,6-dioxopiperidin-3-yl)-3-methyl-2-oxo-2,3-dihydro-1H-benzo[d]imidazol-4-yl)ethynyl)piperidine-1-carboxylate]
< 100 nM	< 10 nM	–	CCc1c(F)ccc2cc(O)cc(-c3ncc4c(N5CCC[C@@](C)(O)C5)nc(OC[C@@]56CCCN5[C@H](COC(=O)N5CCC(N7CCC(Oc8ccc9c(c8)n(C)c(=O)n9C8CCC(=O)NC8=O)CC7)CC5)CC6)nc4c3F)c12 (stereo partly drawn) [Compound 439, ((3S,7aS)-7a-(((7-(8-ethyl-7-fluoro-3-hydroxynaphthalen-1-yl)-8-fluoro-4-((R)-3-hydroxy-3-methylpiperidin-1-yl)pyrido[4,3-d]pyrimidin-2-yl)oxy)methyl)hexahydro-1H-pyrrolizin-3-yl)methyl 4-((1-(2,6-dioxopiperidin-3-yl)-3-methyl-2-oxo-2,3-dihydro-1H-benzo[d]imidazol-5-yl)oxy)-[1,4′-bipiperidine]-1′-carboxylate]
–	10 to 100 nM	> 100 nM	CCc1c(F)ccc2cc(O)cc(-c3ncc4c(N5CCC[C@@](C)(O)C5)nc(OCC56CCCN5C(COCCCN5CCC(c7ccc8c(c7)n(C)c(=O)n8C7CCC(=O)NC7=O)CC5)CC6)nc4c3F)c12 (stereo partly drawn) [Compound 449, 3-(5-(1-(3-((7a-(((7-(8-ethyl-7-fluoro-3-hydroxynaphthalen-1-yl)-8-fluoro-4-((R)-3-hydroxy-3-methylpiperidin-1-yl)pyrido[4,3-d]pyrimidin-2-yl)oxy)methyl)hexahydro-1H-pyrrolizin-3-yl)methoxy)propyl)piperidin-4-yl)-3-methyl-2-oxo-2,3-dihydro-1H-benzo[d]imidazol-1-yl)piperidine-2,6-dione]
< 100 nM	< 10 nM	–	CCc1c(F)ccc2cc(O)cc(-c3ncc4c(N5CCC[C@@](C)(O)C5)nc(OC[C@@]56CCCN5[C@H](COC(=O)N5CCC7(CC5)CN(C5CCN(c8ccc9c(c8)n(C)c(=O)n9C8CCC(=O)NC8=O)CC5)C7)CC6)nc4c3F)c12 (stereo partly drawn) [Compound 463, ((3S,7aS)-7a-(((7-(8-ethyl-7-fluoro-3-hydroxynaphthalen-1-yl)-8-fluoro-4-((R)-3-hydroxy-3-methylpiperidin-1-yl)pyrido[4,3-d]pyrimidin-2-yl)oxy)methyl)hexahydro-1H-pyrrolizin-3-yl)methyl 2-(1-(1-(2,6-dioxopiperidin-3-yl)-3-methyl-2-oxo-2,3-dihydro-1H-benzo[d]imidazol-5-yl)piperidin-4-yl)-2,7-diazaspiro[3.5]nonane-7-carboxylate]
< 100 nM	10 to 100 nM	–	CCc1c(F)ccc2cc(O)cc(-c3ncc4c(N5CCC[C@@](C)(O)C5)nc(OC[C@@]56CCCN5[C@H](CCCN5CCC7(CC5)CC(N5CCC(c8ccc9c(c8)n(C)c(=O)n9C8CCC(=O)NC8=O)CC5)C7)CC6)nc4c3F)c12 (stereo partly drawn) [Compound 472, 3-(5-(1-(7-(3-((3R,7aS)-7a-(((7-(8-Ethyl-7-fluoro-3-hydroxynaphthalen-1-yl)-8-fluoro-4-((R)-3-hydroxy-3-methylpiperidin-1-yl)pyrido[4,3-d]pyrimidin-2-yl)oxy)methyl)hexahydro-1H-pyrrolizin-3-yl)propyl)-7-azaspiro[3.5]nonan-2-yl)piperidin-4-yl)-3-methyl-2-oxo-2,3-dihydro-1H-benzo[d]imidazol-1-yl) piperidine-2,6-dione]
